Calls of active or inactive are those of the source. The rule behind the calls is not given here.
System: GENE-TOX genotoxicity assays, various organisms and cells
Experiment: GENE-TOX mutagenicity studies
Settings: for call: Assay Type: In vivo carcinogenicity studies
[1] = Species/Cell Type: Salmonella typhimurium (one or more of the five standard strains: TA98, TA100, TA1535, TA1537, and TA1538), Assay Type: Histidine reverse gene mutation, Ames assay, Assay Code: SALT, Evaluation Type: Evaluation A (Pre-1980)
[2] = Species/Cell Type: Neurospora crassa, Assay Type: Forward gene mutation, Assay Code: NEF+, Evaluation Type: Evaluation A (Pre-1980)
[3] = Species/Cell Type: Nonhuman, Assay Code: CCG+L, Evaluation Type: Evaluation A (Pre-1980)
[4] = Species/Cell Type: Chinese hamster lung (V79) cells, Assay Type: Forward gene mutation at the HPRT or ouabain locus, Assay Code: V79+, Evaluation Type: Evaluation A (Pre-1980)
[5] = Species/Cell Type: Nonhuman, Assay Type: Sister-chromatid exchange (SCE) in vitro, Assay Code: SC2+D, Dose Response: With dose response, Evaluation Type: Evaluation B (Post-1980)
[6] = Species/Cell Type: Syrian hamster embryo (SHE) cells, Assay Type: Cell transformation, clonal assay, Assay Code: CTC+, Evaluation Type: Evaluation A (Pre-1980)
[7] = Species/Cell Type: Nonhuman, Assay Code: CCG+, Evaluation Type: Evaluation A (Pre-1980)
[8] = Species/Cell Type: Salmonella typhimurium (one or more of the five standard strains: TA98, TA100, TA1535, TA1537, and TA1538), Assay Type: Histidine reverse gene mutation, Ames assay, Assay Code: SAL+*, Activation: With metabolic activation, Evaluation Type: Evaluation A (Pre-1980)
[9] = Species/Cell Type: Allium cepa, Assay Type: Chromosome aberrations, Assay Code: ALC-, Evaluation Type: Evaluation A (Pre-1980)
[10] = Species/Cell Type: Saccharomyces cerevisiae, Assay Type: Mitotic recombination or gene conversion, Assay Code: YEH-, Evaluation Type: Evaluation A (Pre-1980)
[11] = Species/Cell Type: Mammalian polychromatic erythrocytes, Assay Type: Micronucleus test, chromosome aberrations, Assay Code: MNTT, Evaluation Type: Evaluation B (Post-1980)
[12] = Species/Cell Type: Escherichia coli polA (W3119 vs P3478), Assay Type: Rec-assay, DNA effects (bacterial DNA repair), Assay Code: RE1T, Evaluation Type: Evaluation A (Pre-1980)
[13] = Species/Cell Type: Nonhuman, Assay Type: Sister-chromatid exchange (SCE) in vivo, Assay Code: SC3+, Evaluation Type: Evaluation B (Post-1980)

SMILES: O=NN1CCC(Cl)C(Cl)C1 (stereo not given)
- mutagenic call (Species/Cell Type: Drosophila melanogaster, Assay Type: Aneuploidy, partial sex chromosome loss, chromosome aberrations, Assay Code: DAPT, Evaluation Type: Evaluation A (Pre-1980)): no conclusion
- mutagenic call (Species/Cell Type: Drosophila melanogaster, Assay Type: Aneuploidy, whole sex chromosome loss, chromosome aberrations, Assay Code: DACT, Evaluation Type: Evaluation A (Pre-1980)): no conclusion
- mutagenic call (Species/Cell Type: Drosophila melanogaster, Assay Type: Sex-linked recessive lethal gene mutation, Assay Code: SRL+, Evaluation Type: Evaluation A (Pre-1980)): active; positive

SMILES: [Cl][Sb]([Cl])[Cl]
- mutagenic call (Species/Cell Type: Bacillus subtilis (H17 vs M45), Assay Type: Rec-assay, spot test, DNA effects (bacterial DNA repair), Assay Code: REW+, Evaluation Type: Evaluation A (Pre-1980)): active; positive

SMILES: CNc1ccc(Cl)cc1C(=O)c1ccccc1
- mutagenic call [1]: no conclusion

SMILES: C(CC1CO1)C1CO1 (stereo not given)
- mutagenic call [2]: active; positive
- call [3]: active; positive
- mutagenic call (Species/Cell Type: Schizosaccharomyces pombe, Assay Type: Reverse gene mutation, Assay Code: YEZ+, Evaluation Type: Evaluation A (Pre-1980)): active; positive

SMILES: O[C@@H]1[C@@H]2O[C@@H]2c2cc3ccc4cccc5ccc(c2[C@H]1O)c3c45
- mutagenic call [4]: active; positive
- mutagenic call [5]: active; positive

SMILES: Oc1cc2cc3ccccc3cc2c2ccccc12
- mutagenic call [4]: active; positive
- mutagenic call (Species/Cell Type: Mouse prostate cells, Assay Type: Cell transformation, Assay Code: CTM-, Evaluation Type: Evaluation A (Pre-1980)): inactive; negative
- mutagenic call [6]: active; positive

SMILES: Cc1cc(Cc2ccc(N)c(C)c2)ccc1N
- call [7]: active; positive

SMILES: O=c1[nH]cccc1[N+](=O)[O-]
- mutagenic call (Species/Cell Type: Salmonella typhimurium (one or more of the five standard strains: TA98, TA100, TA1535, TA1537, and TA1538), Assay Type: Histidine reverse gene mutation, Ames assay, Assay Code: SAL+, Evaluation Type: Evaluation A (Pre-1980)): active; positive

SMILES: O=NN(CCO)CCCCO
- mutagenic call [8]: active; positive

SMILES: CCc1ccc(O)c(O)c1
- mutagenic call [9]: inactive; negative

SMILES: COC12C(=O)N(C)C(=O)N(C)C1(OC)N(C)C(=O)N2C (stereo not given)
- mutagenic call [9]: inactive; negative

SMILES: COC(=O)C[C@@H]1Cc2cc3c(-c4c(OC)cc(O)c5c(O)c6c(cc45)C[C@@H](CC(=O)OC)OC6=O)c(OC)cc(O)c3c(O)c2C(=O)O1
- mutagenic call [10]: inactive; negative
- mutagenic call [1]: no conclusion

SMILES: CCCCCCCCCCCCCCCCCCOCC(O)COP(=O)([O-])OCC[N+](C)(C)C (stereo not given)
- mutagenic call [11]: no conclusion

SMILES: O=[N+]([O-])c1ccc(Oc2c(Cl)cc(Cl)cc2Cl)cc1
- mutagenic call (Species/Cell Type: Mammalian polychromatic erythrocytes, Assay Type: Micronucleus test, chromosome aberrations, Assay Code: MNTT, Evaluation Type: Evaluation A (Pre-1980)): no conclusion

SMILES: O=C1NCCN1/N=C/c1ccc([N+](=O)[O-])o1
- call [7]: active; positive

SMILES: Cn1cnc2ncn(C)c2c1=O
- mutagenic call [9]: inactive; negative

SMILES: CCCCCCC(=O)N(C)N=O
- mutagenic call (Species/Cell Type: Saccharomyces cerevisiae, Assay Type: Reverse gene mutation, Assay Code: YER+, Evaluation Type: Evaluation A (Pre-1980)): active; positive

SMILES: Clc1cc2c(cc1Cl)Oc1cc(Cl)c(Cl)cc1O2
- mutagenic call [11]: no conclusion
- call [7]: active; positive
- mutagenic call (Species/Cell Type: Nonhuman, Assay Type: Sister-chromatid exchange (SCE) in vivo, Assay Code: SC3T, Evaluation Type: Evaluation B (Post-1980)): no conclusion
- mutagenic call (Species/Cell Type: Rodents, Sex: Male, Assay Type: Dominant lethal test, Assay Code: DLT-, Evaluation Type: Evaluation A (Pre-1980)): inactive; negative

SMILES: Nc1ccc(N=Nc2ccccc2)cc1
- mutagenic call (Species/Cell Type: Escherichia coli polA (W3110 vs P3478), Assay Type: Rec-assay, DNA effects (bacterial DNA repair), Assay Code: RE2-, Evaluation Type: Evaluation A (Pre-1980)): inactive; negative
- mutagenic call [12]: no conclusion
- mutagenic call (Species/Cell Type: Fischer rat embryo (RLV/1706) cells, Assay Type: Cell transformation, viral enhanced, Assay Code: CTR-, Evaluation Type: Evaluation A (Pre-1980)): inactive; negative
- mutagenic call (Species/Cell Type: Mouse embryo (AKR/ME) cells, Assay Type: Cell transformation, Assay Code: CTK-, Evaluation Type: Evaluation A (Pre-1980)): inactive; negative
- call [3]: active; positive
- mutagenic call (Species/Cell Type: Nonhuman, Assay Type: Sister-chromatid exchange (SCE) in vitro, Assay Code: SC2+, Evaluation Type: Evaluation B (Post-1980)): active; positive
- mutagenic call [13]: active; positive
- mutagenic call (Species/Cell Type: Rat primary hepatocytes, Assay Type: Unscheduled DNA synthesis (UDS) in vitro, DNA effects, Assay Code: UDP+, Evaluation Type: Evaluation A (Pre-1980)): active; positive
- mutagenic call [10]: inactive; negative
- mutagenic call [8]: active; positive
- mutagenic call (Species/Cell Type: Salmonella typhimurium, Assay Type: Forward and reverse gene mutation, host-mediated assay, Assay Code: HMA+, Evaluation Type: Evaluation A (Pre-1980)): active; positive
- mutagenic call [6]: active; positive

SMILES: CCN(CCCl)CCCNc1c2ccccc2nc2c1ccc1cccnc12
- mutagenic call (Species/Cell Type: Chinese hamster ovary (CHO) cells, Assay Type: Forward gene mutation at the HPRT locus, Assay Code: CHO+, Evaluation Type: Evaluation B (Post-1980)): active; positive

SMILES: Cc1cc(N=Nc2ccccc2C)ccc1N
- mutagenic call (Species/Cell Type: Escherichia coli polA (W3110 vs P3478), Assay Type: Rec-assay, DNA effects (bacterial DNA repair), Assay Code: RE2+, Evaluation Type: Evaluation A (Pre-1980)): active; positive
- mutagenic call [12]: no conclusion
- mutagenic call [2]: active; positive
- call [7]: active; positive
- mutagenic call [5]: active; positive
- mutagenic call (Species/Cell Type: Nonhuman, Assay Type: Sister-chromatid exchange (SCE) in vitro, Assay Code: SC2T, Evaluation Type: Evaluation A (Pre-1980)): no conclusion
- mutagenic call [13]: active; positive
- mutagenic call [10]: inactive; negative
- mutagenic call [8]: active; positive
- mutagenic call [1]: no conclusion
- mutagenic call (Species/Cell Type: Salmonella typhimurium, Assay Type: Forward and reverse gene mutation, host-mediated assay, Assay Code: HMA-, Evaluation Type: Evaluation A (Pre-1980)): inactive; negative
- mutagenic call [6]: active; positive

SMILES: Nc1ccc(-c2nc(NCCO)c3ccccc3n2)s1
- mutagenic call [1]: no conclusion

From PubChem BioAssay AID1259408 (Genetic Toxicology Data Bank (GENE-TOX), 2018)
